Data: patent publication US5476866A, “Isoxazoles” (Roussel Uclaf, priority 1993, dated 1995)

Experiments:
[1] = tested on: Delayed-type hypersensitivity mouse paw oedema; experiment: Delayed-type hypersensitivity mouse paw oedema (DTH-M) (Test 2); format: in vivo, male mice CD-1; details: daily days 4-6, twice day 7, 24 h after MBSA challenge
Protocol: Delayed-type hypersensitivity mouse paw oedema (DTH-M) (Test 2)
Groups of 8 to 10 male mice CD-1 with a weight range of 25-30 g were sensitized by the subcutaneous injection of 1 mg of methylated bovine serum albumin (MBSA) in 0.2 ml volumes of saline/Freund's complete adjuvant (FCA) emulsion. Negative control groups received injections of saline/FCA emulsion. DTH paw oedema responses were assessed twenty-four hours after the right hind foot pad challenge with 0.1 mg of MBSA in 0.05 ml volumes of saline on day seven after sensitization. Contralateral paws received control saline injections. The test compounds or control vehicles were orally administered daily on days four, five, six and twice on day seven, one hour before and six hours after MBSA challenge.

[2] = Kinetic data: plasma concentrations after oral administration to mice; format: in vivo; details: 30 mg/kg oral; for metabolic half-life relative to the known compound: fraction of known compound's half-life (approximately 21.4 hours); for half-life: mouse, plasma concentrations monitored for 72 hours, read-out: metabolic half-life (converted)
Protocol: A comparison was made between a known compound, namely 5 -cyclopropyl-N-(4-trifluoromethylphenyl)-isoxazole-4-carboxamide and the compounds of the present invention, namely compounds of Examples 5 and 6 above. The compounds were administered orally to mice at doses of 30 mg/kg and plasma concentrations were monitored for 72 hours.

[3] = tested on: Delayed-type hypersensitivity rat paw oedema; experiment: Delayed-type hypersensitivity rat paw oedema (Test 3); format: in vivo, male rats CFHB; details: daily days 4-6, twice day 7, 24 h after antigen challenge
Adjuvant arthritis = Adjuvant arthritis (Test 4); format: in vivo, male rats of a Wistar-Lewis strain; details: 25 mg/kg p.o. once daily for 12 days from day of immunization; vs untreated control
Protocol: Adjuvant arthritis (Test 4) The investigations were carried out by the method of Pearson (Arthrit. Rheum., Vol. 2, (1959) p. 44). The experimental animals used were male rats of a Wistar-Lewis strain having a body weight between 130 to 200 g. The compounds to be tested were administered orally once daily for 12 days, starting on the day of immunization. The animals of a control group received only the vehicle. Each preparation and control group comprised 6 animals. The criterion used to determine activity was the percentage reduction in the increase in paw volume compared to that of the untreated control group.

[4] = tested on: Reverse Passive Arthus Reaction; experiment: Reverse Passive Arthus Reaction (Test 5); format: in vivo, male or female Wistar rats; details: paw volume at 4 h
Protocol: Reverse Passive Arthus Reaction (Test 5)
One hour before challenge, test compounds were administered orally to male or female Wistar rats weighing 120-200 g. After this pre-treatment period, the reaction was induced by a subplantar injection of goat anti-rat serum in the right hind paw. The left hind paw, which served as a control, was injected with saline alone. Paw volumes were determined immediately and four hours after antibody challenge. Doses are given in units of mg/kg p.o.

[5] = tested on: Carrageenan rat paw oedema; experiment: Carrageenan rat paw oedema (Test 1); format: in vivo, male rats CFHB; details: 50 mg/kg p.o.; 1 h before carrageenan; oedema assessed 3 h later
Protocol: Carrageenan rat paw oedema (Test 1)
One hour after the oral administration of the test compounds or control vehicle to groups of 6 to 12 male rats CFHB with a weight range of 160-180 g, 1 mg of carrageenan dissolved in 0.2 ml of saline was injected into the right hind foot pad. Contralateral paws received control saline injections and paw oedema responses were assessed three hours later.

[6] = 50 mg/kg p.o. 1 h before challenge
[7] = 100 mg/kg p.o. 1 h before challenge

Row | SMILES | Test 2 % inhibition ([1]; 30 mg/kg p.o.) [%] | metabolic half-life relative to the known compound [2] | half-life [2] [h] | Test 3 % inhibition ([3]; 10 mg/kg p.o.) [%] | Test 4 % inhibition (percentage reduction in the increase in paw volume) (Adjuvant arthritis) [%] | Test 5 % inhibition [4, 6] [%] | Test 5 % inhibition [4, 7] [%] | Test 1 % inhibition [5] [%] | Test 2 % inhibition ([1]; 100 mg/kg p.o.) [%] | Test 3 % inhibition ([3]; 50 mg/kg p.o.) [%]
1 | Cc1cc(NC(=O)c2cnoc2C2CC2)ccc1C#N [Example 5, 5-cyclopropyl-N-(4-cyano-3-methylphenyl)-isoxazole-4-carboxamide] | 41 | about one third | 7.1 | 62 | 88 | 23 | 34 | 18 | – | –
2 | Cc1cc(NC(=O)c2cnoc2C2CC2)ccc1Br [Example 1, 5-cyclopropyl-N-(4-bromo-3-methylphenyl)-isoxazole-4-carboxamide] | – | – | – | – | -16 | 42 | 26 | 12 | 41 | 24
3 | O=C(Nc1ccc(C(F)(F)F)cc1)c1cnoc1C1CC1 [5-cyclopropyl-N-(4-trifluoromethylphenyl)-isoxazole-4-carboxamide, reference compound] | – | – | ~21.4 | – | – | – | – | – | – | –
4 | O=C(Nc1ccc([N+](=O)[O-])cc1)c1cnoc1C1CC1 [Example 2, 5-cyclopropyl-N-(4-nitrophenyl)-isoxazole-4-carboxamide] | – | – | – | – | 92 | -9 | 27 | 0 | 19 | 52
5 | N#Cc1ccc(NC(=O)c2cnoc2C2CC2)cc1 [Example 3, 5-cyclopropyl-N-(4-cyanophenyl)-isoxazole-4-carboxamide] | 43 | – | – | 60 | 90 | 41 | 36 | 43 | – | –
6 | Cc1cc(NC(=O)c2cnoc2C2CC2)ccc1C(F)(F)F [Example 6, 5-cyclopropyl-N-(3-methyl-4-trifluoromethylphenyl)-isoxazole-4-carboxamide] | – | about one third | 8.2 | – | 42 | 24 | 38 | 12 | 34 | 57
7 | Cc1cc(NC(=O)c2cnoc2C2CC2)ccc1Cl [Example 4, 5-cyclopropyl-N-(4-chloro-3-methylphenyl)-isoxazole-4-carboxamide] | – | – | – | – | 22 | 17 | 28 | 11 | 64 | 32
